Test results from the supplement of paper PMC10307832.

How the values were obtained:
Assay in all cases: relative viability (nuclei count vs DMSO), 5 days (fraction); higher = more cells survive
EHT 1864 + Decitabine = compound: C1COCCN1CC2=CC(=O)C(=CO2)OCCCCCSC3=C4C=CC(=CC4=NC=C3)C(F)(F)F [EHT 1864] + Nc1ncn([C@H]2C[C@H](O)[C@@H](CO)O2)c(=O)n1 [Decitabine] (partner 2 µM)
How it was run: (§1)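 Medians of duplicate plates are given as relative viability. That measure is the nuclei count in treated wells divided by the count in vehicle wells. Counts were taken on 4× images of lung cancer cell lines in 1536-well plates, 5 days after pin-tool dosing the day after seeding with one drug alone or a fixed anchor-drug dose plus five library-drug doses (not always all listed) in √10 steps.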

EHT 1864 + Pictilisib = compound: C1COCCN1CC2=CC(=O)C(=CO2)OCCCCCSC3=C4C=CC(=CC4=NC=C3)C(F)(F)F [EHT 1864] + CS(=O)(=O)N1CCN(Cc2cc3nc(-c4cccc5[nH]ncc45)nc(N4CCOCC4)c3s2)CC1 [Pictilisib] (partner 1 µM)
How it was run: as §1

EHT 1864 + Palbociclib = compound: C1COCCN1CC2=CC(=O)C(=CO2)OCCCCCSC3=C4C=CC(=CC4=NC=C3)C(F)(F)F [EHT 1864] + CC(=O)c1c(C)c2cnc(Nc3ccc(N4CCNCC4)cn3)nc2n(C2CCCC2)c1=O [Palbociclib] (partner 0.5 µM)
How it was run: as §1

EHT 1864 + Phenformin = compound: C1COCCN1CC2=CC(=O)C(=CO2)OCCCCCSC3=C4C=CC(=CC4=NC=C3)C(F)(F)F [EHT 1864] + N=C(N)NC(=N)NCCc1ccccc1 [Phenformin] (partner 250 µM)
How it was run: as §1

Cell Line	relative viability (EHT 1864 + Decitabine; first compound 0.04 µM)	relative viability (EHT 1864 + Decitabine; first compound 0.1265 µM)	relative viability (EHT 1864 + Decitabine; first compound 1.265 µM)	relative viability (EHT 1864 + Decitabine; first compound 4 µM)	relative viability (EHT 1864 + Pictilisib; first compound 0.04 µM)	relative viability (EHT 1864 + Pictilisib; first compound 0.1265 µM)	relative viability (EHT 1864 + Pictilisib; first compound 0.4 µM)	relative viability (EHT 1864 + Pictilisib; first compound 1.265 µM)	relative viability (EHT 1864 + Pictilisib; first compound 4 µM)	relative viability (EHT 1864 + Palbociclib; first compound 0.04 µM)	relative viability (EHT 1864 + Palbociclib; first compound 0.1265 µM)	relative viability (EHT 1864 + Palbociclib; first compound 0.4 µM)	relative viability (EHT 1864 + Palbociclib; first compound 1.265 µM)	relative viability (EHT 1864 + Palbociclib; first compound 4 µM)	relative viability (EHT 1864 + Phenformin; first compound 0.04 µM)	relative viability (EHT 1864 + Phenformin; first compound 0.1265 µM)	relative viability (EHT 1864 + Phenformin; first compound 0.4 µM)	relative viability (EHT 1864 + Phenformin; first compound 1.265 µM)	relative viability (EHT 1864 + Phenformin; first compound 4 µM)	relative viability (EHT 1864 + Decitabine; first compound 0.4 µM)
H3255	0.585	0.548	0.573	0.677	0.405	0.421	0.512	0.479	0.518	0.298	0.322	0.306	0.31	0.312	0.383	0.394	0.424	0.36	0.399	
EPLC-272H	0.406	0.359	0.355	0.396	0.307	0.275	0.446	0.166	0.278	0.356	0.353	0.317	0.33	0.352	0.33	0.34	0.375	0.36	0.248	0.405
PC-3 [JPC-3]	0.801	0.745	0.954	0.844	0.816	0.577	0.853	0.928	0.657	0.549	0.554	0.539	0.545	0.57	0.507	0.439	0.451	0.478	0.51	0.877
NCI-H1944	0.43		0.433	0.417	0.355		0.344	0.359	0.312	0.327		0.353	0.311	0.332	0.233		0.224	0.191	0.199	0.429
EKVX	0.372	0.333	0.329	0.381	0.396	0.428	0.496	0.485	0.437	0.351	0.401	0.441	0.292	0.374	0.23	0.235	0.223	0.252	0.245	0.317
ChaGo-K-1	0.584	0.501	0.477	0.531	0.816	0.664	0.736		0.806	0.946	0.904	0.951	0.852	0.911	0.497	0.427	0.544	0.48	0.463	0.527
NCI-H23	0.297	0.29	0.343	0.393	0.476		0.432	0.593	0.55	0.559	0.429	0.531	0.546	0.492	0.778	0.477	0.784	0.604	0.775	0.314
EMC-BAC-2	0.857	0.935	1.04	0.997	0.525	0.551	0.548	0.517	0.517	0.528	0.491	0.52	0.492	0.518	0.549	0.48	0.558	0.502	0.486	1
LOU-NH91	0.793	0.754	0.804	0.754	0.537	0.507	0.559	0.527	0.514	0.512	0.524	0.53	0.495	0.589	0.783	0.635	0.859	0.738	0.66	0.842
LU99A	0.843	0.757	0.903	0.872	0.389	0.276	0.326	0.289	0.336	0.438	0.375	0.364	0.396	0.374	0.811	0.557	0.821	0.857	0.808	0.827
NCI-H1395	0.722	0.676	0.657	0.673	0.66	0.557	0.58	0.59	0.588	0.61	0.595	0.631	0.57	0.614	0.518	0.422	0.45	0.474	0.431	0.709
NCI-H460		0.405	0.43	0.255	0.379	0.401	0.365	0.251	0.345		0.155	0.16	0.16	0.173	0.508	0.443	0.513	0.518	0.568	0.495
201T	0.86	0.874	0.8	0.778	0.703	0.676	0.7	0.647	0.607	0.345	0.36	0.353	0.307	0.356	0.471	0.423	0.434	0.483	0.445	0.863
NCI-H2170	0.488	0.451	0.473	0.467	0.371	0.272	0.374	0.309	0.275	0.381	0.308	0.408	0.356	0.395	0.442	0.349	0.392	0.368	0.37	0.488
NCI-H2405	0.832	0.717	0.736	0.772	0.447	0.398	0.456		0.439	0.536	0.497	0.469	0.5	0.538	0.445	0.42	0.44	0.289	0.37	0.785
NCI-H1703					0.222	0.245	0.26	0.251	0.266											
NCI-H1755	0.803	0.685	0.707	0.755	0.495	0.376	0.403	0.436	0.428	0.46	0.437	0.42	0.43	0.42	0.607	0.564	0.594	0.612	0.629	0.702

Cell Line	relative viability (EHT 1864 + Decitabine; first compound 0.04 µM)	relative viability (EHT 1864 + Decitabine; first compound 0.1265 µM)	relative viability (EHT 1864 + Decitabine; first compound 1.265 µM)	relative viability (EHT 1864 + Decitabine; first compound 4 µM)	relative viability (EHT 1864 + Pictilisib; first compound 0.04 µM)	relative viability (EHT 1864 + Pictilisib; first compound 0.1265 µM)	relative viability (EHT 1864 + Pictilisib; first compound 0.4 µM)	relative viability (EHT 1864 + Pictilisib; first compound 1.265 µM)	relative viability (EHT 1864 + Pictilisib; first compound 4 µM)	relative viability (EHT 1864 + Palbociclib; first compound 0.04 µM)	relative viability (EHT 1864 + Palbociclib; first compound 0.1265 µM)	relative viability (EHT 1864 + Palbociclib; first compound 0.4 µM)	relative viability (EHT 1864 + Palbociclib; first compound 1.265 µM)	relative viability (EHT 1864 + Palbociclib; first compound 4 µM)	relative viability (EHT 1864 + Phenformin; first compound 0.04 µM)	relative viability (EHT 1864 + Phenformin; first compound 0.1265 µM)	relative viability (EHT 1864 + Phenformin; first compound 0.4 µM)	relative viability (EHT 1864 + Phenformin; first compound 1.265 µM)	relative viability (EHT 1864 + Phenformin; first compound 4 µM)	relative viability (EHT 1864 + Decitabine; first compound 0.4 µM)
NCI-H2087	0.253		0.287	0.3	0.942	0.698	0.952	0.72	0.97	0.266		0.223	0.156	0.224	0.453		0.462	0.434	0.518	0.267
NCI-H2228					0.414	0.357	0.267	0.417	0.443	0.881	0.634	0.642		0.777	0.37	0.232	0.345	0.288	0.52	
NCI-H727	0.98	0.639	0.811	0.914	0.482	0.353	0.419		0.458	0.663	0.642	0.626	0.595	0.653	0.551	0.574	0.481	0.461	0.597	0.85
NCI-H650	0.372	0.312	0.356	0.34	0.915		0.941	0.895	0.847	0.332	0.256	0.346	0.327	0.325	0.403	0.455	0.48	0.447	0.459	0.356
NCI-H520	0.545	0.496	0.493	0.445	0.346	0.27	0.308	0.324	0.336	0.227	0.212	0.258	0.225	0.231	0.517	0.422	0.785	0.669	0.711	0.535
EBC-1					0.425	0.342	0.385	0.41	0.426											
NCI-H661	0.609	0.527	0.576	0.514	0.403	0.435	0.481	0.437	0.415	0.4	0.389	0.41	0.381	0.352	0.339	0.273	0.301	0.302	0.269	0.581
NCI-H1299					0.71	0.669	0.725	0.729	0.684											
NCI-H1648	0.564		0.502	0.643						0.261		0.269	0.258	0.278						0.471
SW 900	0.449		0.46	0.504						0.515		0.586	0.573	0.498	0.435		0.569	0.521	0.597	0.419
NCI-H596	0.937	1.05	1.09	1.24	0.374	0.445	0.388	0.334	0.373						0.75	0.523	0.753	0.571	0.813	1.14
IA-LM					0.421		0.38	0.387	0.384											
NCI-H1563					0.62	0.637	0.638	0.656	0.669						0.672	0.64	0.675	0.677	0.685	
NCI-H2342	0.712	0.562	0.751	0.763						0.487	0.485	0.505	0.554	0.551	0.546	0.52	0.621	0.523	0.678	0.787
NCI-H522	0.592	0.685	0.702	0.703						1.11	1.02	0.948	1	1.05	0.538	0.613	0.605	0.571	0.4	0.709
CAL-12T					0.596	0.542	0.446	0.457	0.574	0.409	0.357	0.459	0.518	0.443	0.582	0.574	0.662	0.583	0.596	
